The text below walks through data of patent US20160237052A1, “Histamine-3 Receptor Antagonists” (MediSynergics, LLC, priority 2015, published 2016).

Like-named read-outs stand apart in the source and are kept apart here.

The target in assay [1] is H1 (Homo sapiens, UniProt P35367). In words: Histamine H1 receptor binding (NIMH PDSP). The note with it: for inhibition at 10 µM: read-out: Inhibition (% at 10 μM). On the procedure:
The compounds from the above Examples were tested for activity vs. histamine receptor subtypes (i.e., H1, H2, H3), at an initial concentration of 10 μM. Binding activity measurement was performed by the NIMH Psychoactive Drug Screening Program (PDSP) at the University of North Carolina Chapel Hill, N.C. […] Data (e.g., H3antagonist activity) may also be generated using a commercially available kit from Invitrogen/Thermo Fisher Scientific Inc. (Tango™ H3-bla U2OS DA Assay Kit).

The target of assay [2] is H3 (UniProt Q9Y5N1). In words: Histamine H3 receptor binding (NIMH PDSP). The note with it: H3 receptor subtype. As to the method:
The compounds from the above Examples were tested for activity vs. histamine receptor subtypes (i.e., H1, H2, H3), at an initial concentration of 10 μM. Binding activity measurement was performed by the NIMH Psychoactive Drug Screening Program (PDSP) at the University of North Carolina Chapel Hill, N.C. The procedures employed by the PDSP are described in the NIMH PDSP Assay Protocol Book Version II (see, http://pdsp.med.unc.edu/PDSP %20Protocols %2011%202013-03-28.pdf). Data (e.g., H3antagonist activity) may also be generated using a commercially available kit from Invitrogen/Thermo Fisher Scientific Inc. (Tango™ H3-bla U2OS DA Assay Kit). Data for serotonin reuptake activity (SERT, % inhibition at 10 μM drug concentration; calculated Ki) were also generated by PDSP.

Assay [3] concerns the target SERT (Homo sapiens, UniProt P31645). In words: Serotonin reuptake activity (SERT), PDSP. It counts as binding. The note with it: for inhibition at 10 µM: 10 μM drug concentration; for Ki: calculated Ki.

Broadly, the Ki is a dissociation constant, usually derived from enzyme kinetics or from competition with a known ligand. A word on the inhibition: it is the drop in the measured response relative to a control, in per cent.

Chain of H1 (P35367 whole entry): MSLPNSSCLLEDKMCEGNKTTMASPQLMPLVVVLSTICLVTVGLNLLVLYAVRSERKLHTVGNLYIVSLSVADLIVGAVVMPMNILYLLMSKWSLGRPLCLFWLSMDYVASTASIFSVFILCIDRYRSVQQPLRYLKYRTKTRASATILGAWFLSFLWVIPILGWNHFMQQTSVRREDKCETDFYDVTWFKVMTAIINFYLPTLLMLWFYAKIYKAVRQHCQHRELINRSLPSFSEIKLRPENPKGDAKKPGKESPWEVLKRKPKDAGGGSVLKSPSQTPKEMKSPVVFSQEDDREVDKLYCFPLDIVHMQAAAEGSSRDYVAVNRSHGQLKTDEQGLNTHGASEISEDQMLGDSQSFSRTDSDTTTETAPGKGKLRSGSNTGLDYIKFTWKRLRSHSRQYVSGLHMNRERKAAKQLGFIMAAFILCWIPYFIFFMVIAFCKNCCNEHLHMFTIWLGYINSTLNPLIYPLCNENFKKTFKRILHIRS
Chain of SERT (P31645 whole entry, species assumed): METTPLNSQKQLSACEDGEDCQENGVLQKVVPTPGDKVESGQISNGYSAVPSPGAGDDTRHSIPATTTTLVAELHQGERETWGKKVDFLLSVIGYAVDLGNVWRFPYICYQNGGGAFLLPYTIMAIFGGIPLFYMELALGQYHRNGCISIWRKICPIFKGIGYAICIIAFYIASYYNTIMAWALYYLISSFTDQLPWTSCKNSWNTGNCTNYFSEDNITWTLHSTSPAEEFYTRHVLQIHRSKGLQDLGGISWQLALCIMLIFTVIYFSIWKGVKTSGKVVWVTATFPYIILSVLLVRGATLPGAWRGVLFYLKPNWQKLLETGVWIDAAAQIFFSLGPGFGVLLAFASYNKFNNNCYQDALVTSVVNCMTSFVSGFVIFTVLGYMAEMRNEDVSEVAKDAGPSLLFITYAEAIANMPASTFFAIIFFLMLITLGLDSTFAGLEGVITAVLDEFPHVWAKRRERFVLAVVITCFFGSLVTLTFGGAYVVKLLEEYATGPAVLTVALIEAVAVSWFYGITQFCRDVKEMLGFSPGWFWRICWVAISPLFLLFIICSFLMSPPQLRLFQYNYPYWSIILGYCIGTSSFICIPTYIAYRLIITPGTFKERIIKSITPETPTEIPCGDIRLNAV

For `CN(C)CCCC1(c2ccc(F)cc2)OCc2cc(CN3CCCCC3)ccc21` (stereo not drawn) [Example 1], in assay [1], the inhibitory constant (Ki) amounted to 101 nM and the inhibition at 10 µM is 89.9%. Further, in assay [2], affinity was put at a Ki of 20 nM and the “Inhibition (% at 10 μM)” value stood at 99.6%. Further, in assay [3], the inhibition at 10 µM was 98.8% and the Ki was 29 nM.

For the compound `CN(C)CCCC1(c2ccc(F)cc2)OCc2cc(CN3CCN(C)CC3)ccc21` (stereo not drawn) [Example 2, 3-[5-((4-methylpiperazin-1-yl)methyl)-1-(4-fluorophenyl)-1,3-dihydro-2-benzofuran-1-yl]-N,N-dimethylpropan-1-amine], the inhibition at 10 µM in assay [1] (H1 receptor subtype, 10 μM) stood at 89.8%; in assay [3], 99.3%. Moreover, the Ki is 144 nM in assay [1] (H1 receptor subtype, read-out: Ki); 155 nM in assay [2]; 31 nM in assay [3]. The “Inhibition (% at 10 μM)” value in assay [2] came out at 89.8%.
